# In patent US6956040B2, “Oxazolidinone piperazinyl derivatives as potential antimicrobials” (Ranbaxy Laboratories Limited, priority 2001, dated 2005):
# Legend:
# [1] = system: MRSA 33; assay: MIC, agar incorporation method; format: cell-based, Staphylococcus aureus; conditions: MRSA 33; agar incorporation
# Experimental: (§1) The compounds of the invention display antibacterial activity when tested by the agar incorporation method. The following minimum inhibitory concentrations (μg/ml) were obtained for representative compounds of the invention which are given below in the following tables.
# (§2) Briefly, the compounds were dissolved in DMSO and doubling dilution of the compounds were incorporated into Meuller Hilton agar before solidification. Inoculum was prepared by suspending 4 to 5 colonies into 5 ml of normal saline solution and adjusting the turbidity to 0.5 Macfarland turbidity standard tables (1.5×10^8 CFU/ml), after appropriate dilutions, 10^4 CFU/spot was transfered into the surface of dried plate and incubated for 18 hours (24 hours for MRSN studies). The concentration showing no growth of the inoculated culture was recorded as the MIC. Appropriate ATCC standard strains were simultaneously tested and result recorded only when the MIC's against standard antibiotics were within the acceptable range.
# [2] = system: MRSA 562; assay: MIC, agar incorporation method; format: cell-based, Staphylococcus aureus; conditions: MRSA 562
# Experimental: as §1, §2
# [3] = system: E. faecalis 29212; assay: MIC, agar incorporation method; format: cell-based, Enterococcus faecalis; conditions: E. faecalis 29212; agar incorporation
# Excerpt: as §1
# (§3) • 1) S.aureus ATCC 25923—Staphylococus aureus ATCC 25923 • 2) MRSA 15187—Methicillin Resistant Staphylococcus aureus • 3) Ent. faecalis ATCC 29212—Enterococcus faecalis ATCC 29212 • 4) Ent. faecium 6A—Enterococcus faecium 6A Van®, Cipro® • 5) Strep. pne. ATCC 6303—Streptococcus pneumoniae ATCC 6303 • 6) Strep. pyog. ATCC 19615—Streptococcus pyogenes • 7) S. epidermidis—Staphylococcus epidermidis ATCC 12228
# as §2
# [4] = system: G+ve; assay: Summary of in vitro activity (MIC) against G+ve bacteria; format: cell-based; conditions: for MIC50 / MIC90: G+ve, Number 49; for Geometric Mean of in vitro activity (MIC): Gram +ve
# Experimental: as §1, §2
# [5] = system: E. faecalis; assay: Summary of in vitro activity (MIC) against E. faecalis; format: cell-based, Enterococcus faecalis; conditions: E. faecalis; for MIC50 / MIC90: Number 7
# Experimental: as §1, §2
# [6] = system: VRE 6A; assay: MIC, agar incorporation method; format: cell-based, Enterococcus faecium; conditions: VRE 6A; agar incorporation
# Excerpt: as §1, §3, §2
# [7] = system: MRSA 562; assay: In vivo activity against MRSA 562 (ED50); design: species or system Staphylococcus aureus
# [8] = system: S. pneumoniae; assay: Summary of in vitro activity (MIC) against S. pneumoniae; format: cell-based, Streptococcus pneumoniae; conditions: S. pneumoniae; for MIC50 / MIC90: Number 19
# Experimental: as §1, §2
# [9] = system: S. pyogenes 19615; assay: MIC, agar incorporation method; format: cell-based, Streptococcus pyogenes; conditions: S. pyogenes 19615; agar incorporation
# Excerpt: as §1, §3, §2
# [10] = system: S. aureus; assay: Summary of in vitro activity (MIC) against S. aureus; format: cell-based, Staphylococcus aureus; conditions: S. aureus; for MIC50 / MIC90: Number 8
# Experimental: as §1, §2
# [11] = system: S. aureus 25923; assay: MIC, agar incorporation method; format: cell-based, Staphylococcus aureus; conditions: S. aureus 25923; agar incorporation
# Excerpt: as §1, §3, §2
# [12] = system: MRSA 15187; assay: MIC, agar incorporation method; format: cell-based, Staphylococcus aureus; conditions: MRSA 15187; agar incorporation
# Excerpt: as §1, §3, §2
# [13] = system: S. pneum 6303; assay: MIC, agar incorporation method; format: cell-based, Streptococcus pneumoniae; conditions: S. pneum 6303; agar incorporation
# Excerpt: as §1, §3, §2
# [14] = system: S. pneum AB 34; assay: MIC, agar incorporation method; format: cell-based, Streptococcus pneumoniae; conditions: S. pneum AB 34; agar incorporation
# Experimental: as §1, §2
# [15] = Changes in MIC under different conditions: Agar MIC; format: cell-based; conditions: strain not given
# Experimental: as §1, §2
# [16] = Changes in MIC under different conditions: Broth MIC; format: cell-based; conditions: strain not given
MIC ([2]; Table 5),SMILES,MIC [1],MIC [3],MIC50 [4],MIC90 [4],Geometric Mean of in vitro activity (MIC) [4],Geometric Mean of in vitro activity (MIC) [5],MIC50 [5],MIC90 [5],MIC [6],ED50 (mg/kg body weight) PO [7],Geometric Mean of in vitro activity (MIC) [8],MIC50 [8],MIC90 [8],MIC [9],Geometric Mean of in vitro activity (MIC) [10],MIC [11],MIC [12],MIC [13],MIC [14],further results
1 µg/mL,"CC(=O)NC[C@H]1CN(c2ccc(N3CCN(C(=O)c4ccc([N+](=O)[O-])o4)CC3)c(F)c2)C(=O)O1 [Compound No. 06, (S)-N-[[3-Fluoro-4-[N-1[4-(5-nitro-2-furoyl)piperazinyl]phenyl]-2-oxo-5-oxazolidinyl]methyl]acetamide]",0.5 µg/mL,1 µg/mL,1 µg/mL,2 µg/mL,0.79 µg/mL,0.92 µg/mL,1 µg/mL,1 µg/mL,1 µg/mL,>25 mg/kg body weight,1.27 µg/mL,2 µg/mL,2 µg/mL,2 µg/mL,0.74 µg/mL,1 µg/mL,0.5 µg/mL,2 µg/mL,2 µg/mL,MIC50 [10]: 1 µg/mL; MIC90 [10]: 1 µg/mL
2 µg/mL,"CC(=O)NC[C@H]1CN(c2ccc(N3CCN(C(=O)C(=O)c4cccs4)CC3)c(F)c2)C(=O)O1 [Compound No. 07, (S)-N[[3-[3-Fluoro-4-[N-1[4-{2-(2-thienyl)dicarbonyl}]-piperazinyl]phenyl]2-oxo-5-oxazolidinyl]methyl]acetamide]",2 µg/mL,2 µg/mL,–,–,–,–,–,–,2 µg/mL,>25 mg/kg body weight,–,–,–,0.5 µg/mL,–,2 µg/mL,2 µg/mL,2 µg/mL,2 µg/mL,"MIC ([2]; agar incorporation, Table 1): 2 µg/mL"
–,CC(=O)NC[C@H]1CN(c2ccc(N3CCN(Cc4ccc([N+](=O)[O-])o4)CC3)c(F)c2)C(=O)O1.Cl [Compound No. 16],4 µg/mL,2 µg/mL,–,–,–,–,–,–,4 µg/mL,–,–,–,–,0.5 µg/mL,–,2 µg/mL,4 µg/mL,1 µg/mL,1 µg/mL,Agar MIC [15]: 2 µg/mL; Broth MIC +50% Sheep serum ([16]; +50% Sheep serum): 2 µg/mL; Broth MIC Normal MH broth ([16]; Normal MH broth): 2 µg/mL

SMILES,MIC ([2]; Table 5),MIC [1],MIC [3],MIC50 [4],MIC90 [4],Geometric Mean of in vitro activity (MIC) [4],Geometric Mean of in vitro activity (MIC) [5],MIC50 [5],MIC90 [5],MIC [6],ED50 (mg/kg body weight) PO [7],Geometric Mean of in vitro activity (MIC) [8],MIC50 [8],MIC90 [8],MIC [9],Geometric Mean of in vitro activity (MIC) [10],MIC [11],MIC [12],MIC [13],MIC [14],further results
"CC(=O)NC[C@H]1CN(c2ccc(N3CCN(Cc4ccc([N+](=O)[O-])o4)CC3)c(F)c2)C(=O)O1 [Compound No. 15, (S)-N-[[3-[3-fluoro-4-[N-1-[4-{2-furyl-(5-nitro)methyl}]piperazinyl]phenyl]-2-oxo-5-oxazolidinyl]methyl]acetamide]",2 µg/mL,2 µg/mL,2 µg/mL,1 µg/mL,2 µg/mL,1.08 µg/mL,1.6 µg/mL,2 µg/mL,2 µg/mL,1 µg/mL,4.33 mg/kg body weight,1.04 µg/mL,2 µg/mL,4 µg/mL,1 µg/mL,1.63 µg/mL,2 µg/mL,2 µg/mL,1 µg/mL,2 µg/mL,"MIC ([2]; agar incorporation, Table 1): 2 µg/mL; MIC50 [10]: 2 µg/mL; MIC90 [10]: 2 µg/mL"
